# Assay results from patent publication US8703805B2 (Exelixis Patent Company LLC, priority 2005, dated 2014).
# Tested on: LXRα and/or LXRβ
# Assay: LXR/LXRE co-transfection assay (luciferase reporter, CV-1 cells)
# Format: cell-based, human
# Settings: IC50 or EC50 for LXR (LXRα and/or LXRβ, not distinguished), tested as described in Example 109, CV-1 cells
# Outline: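 Luciferase readout after 20 h compound exposure at 37 °C in CV-1 cells transiently expressing human LXRα or LXRβ with RXRα and an LXRE-driven reporter. Dose-response over 8 points at ½-log spacing, 4 wells each, fitted for EC50/IC50; values average ≥3 independent experiments, efficacy as % of high control.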
row,EC50,Structure (SMILES)
1,1 to 10 µM,"CC(C)(NC=O)c1cc(-c2ccc(-c3cccc(S(C)(=O)=O)c3)s2)n(-c2ccccc2Cl)n1 [Example 1203, N-{1-[1-(2-chlorophenyl)-5-{5-[3-(methylsulfonyl)phenyl]-2-thienyl}-1H-pyrazol-3-yl]-1-methylethyl}formamide]"
2,< 1 µM,"CC(=O)c1cc(-c2ccc(-c3cccc(S(C)(=O)=O)c3)s2)n(-c2ccccc2)n1 [Example 1268, 1-(5-{5-[3-(methylsulfonyl)phenyl]-2-thienyl}-1-phenyl-1H-pyrazol-3-yl)ethanone]"
3,< 1 µM,"CS(=O)(=O)c1cccc(-c2ccc(-c3cc(C(=O)NCC(F)(F)F)nn3-c3c(Cl)cccc3Cl)c(Cl)c2)c1 [Example 1397, 5-(3-chloro-3′-(methylsulfonyl)biphenyl-4-yl)-1-(2,6-dichlorophenyl)-N-(2,2,2-trifluoroethyl)-1H-pyrazole-3-carboxamide]"
4,< 1 µM,"CC(C)(O)c1cc(-c2ccc(-c3cccc(S(C)(=O)=O)c3)s2)n(-c2cc(Cl)ccc2Oc2ccccc2)n1 [Example 1212, 2-(1-[5-chloro-2-(phenyloxy)phenyl]-5-{5-[3-(methylsulfonyl)phenyl]-2-thienyl}-1H-pyrazol-3-yl)propan-2-ol]"
5,< 1 µM,"COC(=O)c1cccc(-n2nc(C(=O)OC)cc2-c2ccc(-c3cccc(S(C)(=O)=O)c3)s2)c1 [Example 1220, methyl 1-{3-[(methyloxy)carbonyl]phenyl}-5-{5-[3-(methylsulfonyl)phenyl]-2-thienyl}-1H-pyrazole-3-carboxylate]"
6,1 to 10 µM,"CN1CCN(C(=O)c2cc(-c3ccc(-c4cccc(S(C)(=O)=O)c4)s3)n(-c3ccccc3Cl)n2)CC1 [Example 508, 1-{[1-(2-chlorophenyl)-5-{5-[3-(methylsulfonyl)phenyl]-2-thienyl}-1H-pyrazole-3-yl]carbonyl}-4-methylpiperazine]"
7,< 1 µM,"COC(=O)c1cc(-c2ccc(-c3cccc(S(C)(=O)=O)c3)s2)n(-c2c(Cl)cccc2Cl)n1 [Example 1238, methyl 1-(2,6-dichlorophenyl)-5-{5-[3-(methylsulfonyl)phenyl]-2-thienyl}-1H-pyrazole-3-carboxylate]"
8,1 to 10 µM,"COC(=S)c1cc(-c2ccc(-c3cccc(S(C)(=O)=O)c3)s2)n(-c2ccccc2C(F)(F)F)n1 [Example 1179, O-methyl 5-{5-[3-(methylsulfonyl)phenyl]-2-thienyl}-1-[2-(trifluoromethyl)phenyl]-1H-pyrazol-3-carbothioate]"
9,1 to 10 µM,"COc1ncc(-c2ccc(-c3cc(C(C)(C)O)nn3-c3ccccc3Cl)cc2)cn1 [Example 1291, 2-[1-(2-chlorophenyl)-5-{4-[2-(methyloxy)pyrimidin-5-yl]phenyl}-1H-pyrazol-3-yl]propan-2-ol]"
10,< 1 µM,"CS(=O)(=O)c1cccc(-c2ccc(-c3cc(C4(O)CCCC4)nn3-c3ccccc3Cl)s2)c1 [Example 1228, 1-[1-(2-chlorophenyl)-5-{5-[3-(methylsulfonyl)phenyl]-2-thienyl}-1H-pyrazol-3-yl]cyclopentanol]"
11,< 1 µM,"COC(=O)c1cc(-c2ccc(-c3cccc(S(=O)(=O)C(C)C)c3)s2)n(-c2ncccc2C(F)(F)F)n1 [Example 1170, methyl 5-(5-{3-[(1-methylethyl)sulfonyl]phenyl}-2-thienyl)-1-[3-(trifluoromethyl)pyridin-2-yl]-1H-pyrazole-3-carboxylate]"
12,1 to 10 µM,"CN1CCC(N(C(=O)c2ccc(-c3cc(C(F)(F)F)nn3-c3ccccc3Cl)cc2)C2CC2)CC1 [Example 1029, 4-[1-(2-chlorophenyl)-3-(trifluoromethyl)-1H-pyrazol-5-yl]-N-cyclopropyl-N-(1-methylpiperidin-4-yl)benzamide]"
13,< 1 µM,"CC(C)(O)c1cc(-c2c(Cl)cccc2Cl)n(-c2ccc(-c3cccc(S(C)(=O)=O)c3)cc2Cl)n1 [Example 124, 2-(1-(3-chloro-3′-(methylsulfonyl)nbiphenyl-4-yl)-5-(2,6-dichlorophenyl)-1H-pyrazol-3-yl)propan-2-ol]"
14,< 1 µM,"NS(=O)(=O)c1cccc(-c2ccc(-c3cc(C(F)(F)F)nn3-c3cc(Cl)ccc3Oc3ccccc3)s2)c1 [Example 1198, 3-(5-{1-[5-chloro-2-(phenyloxy)phenyl]-3-(trifluoromethyl)-1H-pyrazol-5-yl}-2-thienyl)benzenesulfonamide]"
15,< 1 µM,"CC(C)(O)c1nn(-c2c(Cl)cccc2Cl)c(-c2ccc(-c3cccc(S(C)(=O)=O)c3)cc2)c1Cl [Example 138, 2-(4-chloro-1-(2,6-dichlorophenyl)-5-(3′-(methylsulfonyl)biphenyl-4-yl)-1H-pyrazol-3-yl)propan-2-ol]"
16,< 1 µM,"COC(C)(C)c1cc(-c2ccc(-c3cccc(S(C)(=O)=O)c3)s2)n(-c2ccccc2Cl)n1 [Example 134, 1-(2-chlorophenyl)-3-(2-methoxypropan-2-yl)-5-(5-(3-(methylsulfonyl)phenyl)thiophen-2-yl)-1H-pyrazole]"

row,EC50,Structure (SMILES)
1,1 to 10 µM,"CC(C)(O)c1cc(-c2ccc(-c3cccc(C(F)(F)F)c3)cc2)n(-c2ccccc2Cl)n1 [Example 1287, 2-{1-(2-chlorophenyl)-5-[3′-(trifluoromethyl)biphenyl-4-yl]-1H-pyrazol-3-yl}propan-2-ol]"
2,1 to 10 µM,"CS(=O)(=O)c1cc(-c2ccc(-c3cc(C(F)(F)F)nn3-c3cc(Cl)ccc3Cl)s2)ccc1OCCN1CCOCC1 [Example 1259, 4-(2-{[4-{5-[1-(2,5-dichlorophenyl)-3-(trifluoromethyl)-1H-pyrazol-5-yl]-2-thienyl}-2-(methylsulfonyl)phenyl]oxy}ethyl)morpholine]"
3,< 1 µM,"CC(C)(O)c1cc(-c2ccc(-c3cccc(S(C)(=O)=O)c3)s2)n(-c2ccccc2C(F)(F)F)n1 [Example 1158, 2-(5-{5-[3-(methylsulfonyl)phenyl]-2-thienyl}-1-[2-(trifluoromethyl)phenyl]-1H-pyrazol-3-yl)propan-2-ol]"
4,1 to 10 µM,"CC(C)(O)c1cc(-c2ccc(-c3cccc(C#N)c3)s2)n(-c2ccccc2Cl)n1 [Example 1269, 3-{5-[1-(2-chlorophenyl)-3-(1-hydroxy-1-methylethyl)-1H-pyrazol-5-yl]-2-thienyl}benzonitrile]"
5,1 to 10 µM,"CC(C)(O)c1cc(-c2ccc(-c3ccc4[nH]ccc4c3)cc2)n(-c2ccccc2Cl)n1 [Example 1283, 2-{1-(2-chlorophenyl)-5-[4-(1H-indol-5-yl)phenyl]-1H-pyrazol-3-yl}propan-2-ol]"
6,< 1 µM,"CC(C)(O)c1cc(-c2ccc(-c3cccc(S(C)(=O)=O)c3)cc2Cl)n(Cc2cccc(Cl)c2Cl)n1 [Example 1402, 2-(5-(3-chloro-3′-(methylsulfonyl)biphenyl-4-yl)-1-(2,3-dichlorobenzyl)-1H-pyrazol-3-yl)propan-2-ol]"
7,< 1 µM,"CN(Cc1cc(-c2ccc(-c3cccc(S(C)(=O)=O)c3)s2)n(-c2ccccc2Cl)n1)Cc1ncco1 [Example 1147, 1-[1-(2-chlorophenyl)-5-{5-[3-(methylsulfonyl)phenyl]-2-thienyl}-1H-pyrazol-3-yl]-N-methyl-N-(1,3-oxazol-2-ylmethyl)methanamine]"
8,< 1 µM,"CC(C)(O)c1cc(-c2ccc(-c3cccc(S(C)(=O)=O)c3)s2)n(-c2c(F)cccc2C(F)(F)F)n1 [Example 1353, 2-(1-[2-fluoro-6-(trifluoromethyl)phenyl]-5-{5-[3-(methylsulfonyl)phenyl]-2-thienyl}-1H-pyrazol-3-yl)propan-2-ol]"
9,1 to 10 µM,"CS(=O)(=O)c1cc(-c2ccc(-c3cc(C(F)(F)F)nn3-c3cc(Cl)ccc3Cl)s2)ccc1OCCc1nnn[nH]1 [Example 1260, 5-(2-{[4-{5-[1-(2,5-dichlorophenyl)-3-(trifluoromethyl)-1H-pyrazol-5-yl]-2-thienyl}-2-(methylsulfonyl)phenyl]oxy}ethyl)-1H-tetrazole]"
10,1 to 10 µM,"CC(C)(O)c1cc(-c2ccccc2Cl)n(-c2ccc(-c3cccc(S(C)(=O)=O)c3)cn2)n1 [Example 1233, 2-[5-(2-chlorophenyl)-1-{5-[3-(methylsulfonyl)phenyl]pyridin-2-yl}-1H-pyrazol-3-yl]propan-2-ol]"
11,1 to 10 µM,"CC(CO)NC(=O)c1cc(-c2ccc(-c3cccc(S(C)(=O)=O)c3)s2)n(-c2ccccc2Cl)n1 (centres unmarked) [Example 1270, 1-(2-chlorophenyl)-N-(2-hydroxy-1-methylethyl)-5-{5-[3-(methylsulfonyl)phenyl]-2-thienyl}-1H-pyrazole-3-carboxamide]"
12,< 1 µM,"CC(C)(O)c1nn(-c2cccnc2C(F)(F)F)c(-c2ccc(-c3cccc(S(C)(=O)=O)c3)cc2Cl)c1Cl [Example 1387, 2-(4-chloro-5-(3-chloro-3′-(methylsulfonyl)biphenyl-4-yl)-1-(2-(trifluoromethyl)pyridin-3-yl)-1H-pyrazol-3-yl)propan-2-ol]"
13,1 to 10 µM,"CC(C)(O)c1nn(-c2ccccc2Cl)c(-c2ccc(-c3cccc(S(C)(=O)=O)c3)cn2)c1Cl [Example 128, 2-(4-chloro-1-(2-chlorophenyl)-5-(5-(3-(methylsulfonyl)phenyl)pyridin-2-yl)-1H-pyrazol-3-yl)propan-2-ol]"
14,< 1 µM,"Cc1cc(-c2cccc(S(C)(=O)=O)c2)ccc1-c1c(Cl)c(C(C)(C)O)nn1-c1cnccc1C(F)(F)F [Example 107, 2-(4-chloro-5-(3-methyl-3′-(methylsulfonyl)biphenyl-4-yl)-1-(4-(trifluoromethyl)pyridin-3-yl)-1H-pyrazol-3-yl)propan-2-ol]"
15,< 1 µM,"CC(C)(O)c1cc(-c2ccc(-c3cccc(S(C)(=O)=O)c3)cc2Cl)n(-c2cccnc2C(F)(F)F)n1 [Example 1385, 2-(5-(3-chloro-3′-(methylsulfonyl)biphenyl-4-yl)-1-(2-(trifluoromethyl)pyridin-3-yl)-1H-pyrazol-3-yl)propan-2-ol]"
16,1 to 10 µM,"CS(=O)(=O)c1cccc(-c2ccc(-c3cc(CNc4cc[nH]c(=S)n4)nn3-c3ccccc3Cl)s2)c1 [Example 545, 4-({[1-(2-chlorophenyl)-5-{5-[3-(methylsulfonyl)phenyl]-2-thienyl}-1H-pyrazol-3-yl]methyl}amino)pyrimidine-2(1H)-thione]"
